Converted amounts (≈) assume the structure as drawn. A value given as a limit tells only on which side of the number the result lay.

The record followed here is patent publication US12065410B2, “Crystal forms of 2-[4-[(2,3,4-trimethoxyphenyl)methyl]piperazin-1-yl]ethyl pyridine-3-carboxylate” (IMBRIA PHARMACEUTICALS, INC., priority 2020, dated 2024).

What all share (format): physicochemical
Series [1] in a line: Dynamic vapor sorption (DVS) with XRPD before and after. The source says:
FIG. 8 is a dynamic vapor sorption isotherm plot. Cycle sorption is shown in red; cycle 1 desorption is shown in blue; and cycle 2 sorption is shown in green.
Pre-DVS data is shown in red; and post-DVS data is shown in blue.

Series [2] is described as follows: Slurry conversion / water activity / slurry competition at RT, solids analysed by XRPD. Here is the method: Slurry conversion experiments were conducted at RT in different solvent systems. Approximately 20 mg of starting material was suspended in 0.1 mL of solvent in HPLC vials. After the suspension was stirred magnetically for 48 hours at RT, the remaining solids were isolated for XRPD analysis.

Series [3] is described as follows: Approximate solubility of starting material at RT by stepwise solvent addition. Particulars: thermodynamic from solid. Here is the method: Starting with Form A, polymorph screening experiments were set up under 34 conditions using methods of slurry conversion, liquid vapor diffusion, slow evaporation, and slow cooling. The approximate solubility of starting material was determined at room temperature (RT). Accurately weighed samples of approximately 2 mg weight were added into a 3-mL glass vial. Solvents were then added step wise (50/50/200/700 μL) into the vials until the solids were dissolved or a total volume of 1 mL was reached.

Series [4] can be described thus: Solid-form stability on heating, vacuum dehydration and re-exposure to ambient RH (XRPD). Here is the method: CV-8972 starting material is shown in blue; CV-8972 following incubation at 90° C. for 8 hours is shown in red; and CV-8972 following incubation at 65° C. in a vacuum for 2 hours is shown in purple. To see if the small DSC endotherm at 85.3° C. corresponds to polymorphic phase transition or dehydration, XRPD was performed on Form A after storing it in an oven at 90° C. for 8 hours.
Data from starting material is shown in blue; data following incubation for 2 hours in vacuum oven are shown in red; and data from heated material that was exposed to ambient relative humidity is shown in green. To monitor Form A in its dehydrated state, it was placed in a vacuum oven at 65° C. for 2 hours followed by its XRPD analysis.

Consider `COc1ccc(CN2CCN(CCOC(=O)c3cccnc3)CC2)c(OC)c1OC` [CV-8972, 2-[4-[(2,3,4-trimethoxyphenyl)methyl]piperazin-1-yl]ethyl pyridine-3-carboxylate], for which the “Water uptake (DVS)” value in series [1] (25° C. and 80% relative humidity (RH)) is below 0.2%. Moreover, in series [1] (beyond 80% RH, possible deliquescence), the “Mass change (DVS)” value is given as “drastic increase in the mass change”. In addition, the “XRPD of the sample after DVS” value in series [1] (post-DVS versus pre-DVS) is “mostly similar to the starting material”.
A word on the solubility: it is the concentration that dissolves in the medium under given conditions. Take `COc1ccc(CN2CCN(CCOC(=O)c3cccnc3)CC2)c(OC)c1OC` [Form A, 2-[4-[(2,3,4-trimethoxyphenyl)methyl]piperazin-1-yl]ethyl pyridine-3-carboxylate]: the “Hygroscopicity (DVS)” value in series [1] (25° C., up to 80% RH) is on record as “non hygroscopic”. Moreover, the “Solid Form after slurry conversion” value is on record as “Form A” in series [2] (Acetone, stirred 48 hours at RT); “Form A” in series [2] (Acetone/H2O (aw = 0.2, 941/59), 48 hours at RT); “Form A” in series [2] (Acetone/H2O (aw = 0.4, 857/143), 48 hours at RT); “Form A” in series [2] (Acetone/H2O (aw = 0.6, 726/274), 48 hours at RT); “Form A” in series [2] (Acetone/H2O (aw = 0.8, 492/508), 48 hours at RT); “Form A” in series [2] (H2O, 48 hours at RT). Moreover, the “Relative stability among polymorphs” value in series [2] (ambient temperature and relative humidity) is on record as “most stable”. For the same compound, the solubility in series [3] (CHCl3, organic solvent or mixture, CHCI3, RT) was below 1800 µg/mL; in series [3] (organic solvent or mixture, 1,4-Dioxane, RT), below 1700 µg/mL; in series [3] (organic solvent or mixture, ACN, RT), below 1500 µg/mL; in series [3] (organic solvent or mixture, Acetone, RT) it was below 2000 µg/mL; in series [3] (organic solvent or mixture, CPME, RT), below 1500 µg/mL; in series [3] (organic solvent or mixture, DCM, RT), below 2200 µg/mL. In addition, the solubility in series [3] (organic solvent or mixture, DMF, RT) was 1800 to 6000 µg/mL (≈ 4.33 to 14.4 mM); in series [3] (organic solvent or mixture, DMSO, RT), 5000 to 15000 µg/mL (≈ 12 to 36.1 mM); in series [3] (organic solvent or mixture, EtOAc, RT), below 1800 µg/mL; in series [3] (organic solvent or mixture, EtOH, RT), below 1700 µg/mL; in series [3] (organic solvent or mixture, IPA, RT) it was below 2300 µg/mL; in series [3] (organic solvent or mixture, IPAc, RT) it was below 1700 µg/mL. The solubility in series [3] (organic solvent or mixture, MEK, RT) was below 2000 µg/mL; in series [3] (organic solvent or mixture, MIBK, RT), below 2000 µg/mL; in series [3] (organic solvent or mixture, MeOH, RT), above 46000 µg/mL; in series [3] (organic solvent or mixture, NMP, RT) it was 6700 to 20000 µg/mL (≈ 16.1 to 48.1 mM); in series [3] (organic solvent or mixture, THF, RT), below 2200 µg/mL; in series [3] (organic solvent or mixture, Toluene, RT), below 2300 µg/mL. Also, the solubility in series [3] (organic solvent or mixture, n-Heptane, RT) was below 1900 µg/mL; in series [3] (water, H2O, RT), above 44000 µg/mL. In addition, the “Solid form after vacuum oven (XRPD)” value in series [4] (65° C. vacuum for 2 hours) was “Form E”. In addition, in series [4] (90° C. for 8 hours), the “Solid form after oven storage (XRPD)” value is on record as “converts to Form E”.
On to `COc1ccc(CN2CCN(CCOC(=O)c3cccnc3)CC2)c(OC)c1OC` [Form E, 2-[4-[(2,3,4-trimethoxyphenyl)methyl]piperazin-1-yl]ethyl pyridine-3-carboxylate], for which the “Solid form change in slurry competition between Forms D and E” value in series [2] is listed as “converted to Form A”. Further, the “Solid form change in water activity analysis” value in series [2] (all conditions tested) was “converts to Form A”. Further, the “Solid form change on exposure to ambient temperature and humidity” value in series [4] (ambient RH, rehydration) was “partial conversion to Form A”.
